Laboratory results: publication PMC5740082, “Identification of a CARM1 Inhibitor with Potent In Vitro and In Vivo Activity in Preclinical Models of Multiple Myeloma” (Scientific Reports, 2017)

Legend:
[1] = test system: OPM-2; assay: Six-day cell proliferation assay (CellTiter-Glo); assay type: cell-based; settings: Homo sapiens, 144 h; OPM-2 (MM), 6 days; read-out: Average day 6 gIC50
Description: (§1) Six-day cell proliferation assay
(§2) Optimal cell seeding density was determined empirically for each cell lines by examining the gro wth of a wide ran ge o f seedin g densities in a 3 84-well formatto identify conditio ns that permitted maximal and continued proliferation for 6 days. Cells were plat ed in duplicate plates 24 hours before treatment with a 20- point two-fold dilution series of compound or 0.15%
(§3) DMSO. Plates were incubated for 6 da ys at 37°C in 5% CO2. Cells were th en l ysed with CellTiter-Glo (CTG) (Pr omega) and chemiluminescent sign al was detected with an appropriat e microplate reader. In addition, an untreated plate of cells was harvested at the time of compound addition (T0) to quantif y the initial cell densit y. CTG values obtained after 6 days of treatment were expressed as a percent of the T0 value and plotted against compound concentration. […]
(§4) Supplementary Table S 3. […] A p anel […]
(§5) of cell lines was treated with EZM2302fo r 6da ys in a proliferation ass a y. Cell densit y (as assessed b y CellTiter-Gl o) at da y 0 was compared to day 6 to det ermine growth IC 50 values , calculated us i n g a f our parameter dose response equation.
(§6) Cell Type According to Cell Type Category Cell L ine Name gIC50 Average day 6 Standard Replicates

[2] = test system: SH-2; assay: Six-day cell proliferation assay (CellTiter-Glo); assay type: cell-based; settings: 144 h; SH-2 (AML), 6 days; read-out: Average day 6 gIC50
Description: as §1, §2, §3, §4, §5, §6

[3] = Plasma protein binding (equilibrium dialysis), mouse plasma; assay type: in vitro ADME, CD-1 mouse; settings: male, CD-1, pH 7.4
Description: (§7) Hepatocyte stability, plasma protein binding and cytochrome P450 assays were performed using standard procedures. Details can be found in Supplementary Methods. […]
reaction. Plates were incubated at 37°C and 50 µL aliquots were removed from the incubation mixture at 0, 10, 20, 40, 60 and 90 min and added to 2 volumes of methanol containing metoprolol (internal standard) to stop the reaction. Negative control incubations with inactivated cell l ysat e were incubat ed for 90 min. Positive controls were verapamil and umbelliferone. The termination plates were centrifuged at 2,500 rpm for 20 min at 4°C to precipitate the protein prior to LC -MS/MS analysis. In vitro h alf -life (t½) value was det ermined b y plotting the natural logarithm of the anal yte/ IS peak area ratios as a function of time, with the slope of the linear regression (k; - gradient) converted to in vitro t ½ v alue wher e t ½=0.693/k. […]
(§8) Plasma protein binding was assessed b y equilibrium dial ysis, utilizing the HT-dial ysis cell format with a cellulose semi- permeable membran e (molecular wei ght cut-off of 5000 Da).
(pH 7.4) and 100% mixed gender pooled human, pooled male CD -1 mouse or Sprague-Dawle y rat plasma. […] Samples were quantified using standard curves prepared in the equivalent matrix. The fraction unbound in plas ma (fu) was calculated us ing the followin g equ ation: […]

[4] = Plasma protein binding (equilibrium dialysis), rat plasma; assay type: in vitro ADME; settings: Sprague-Dawley, pH 7.4
Description: as §7, §8
(pH 7.4) and 100% mixed gender pooled human, pooled male CD -1 mouse or Sprague-Dawle y rat plasma. The buffer solution was added to one s ide of the membrane and the plasma solution to the other side. Incubations were performed in duplicate for 16 h, at 37°C, in order to allow the compounds to reach equi librium. Haloperidol was incubated in parallel as the control compound for each speci es. At the end of the incubation time, samples were taken from both sides of the membrane. Following protein precipitation, the samples were anal yz ed b y LC-MS/MS using two sets of calibration standards for protein free (7 poi nts) and protein containi ng solutions (6 points). Samples were quantified using standard curves prepared in the equivalent matrix. The fraction unbound in plas ma (fu) was calculated us ing the followin g equ ation: […]

[5] = molecular target: T1, CYP1A2 (Homo sapiens, UniProt P05177); assay: Cytochrome P450 inhibition; assay type: in vitro ADME; settings: human liver microsomes, tested up to 25 µM
T1 construct: with human liver microsomes; from tissue; host or cells: human liver microsomes
Description: as §7
(§9) Cytochrome P450 Inhibition (IC50 Determination) […]
(§10) with human liver microsomes (0.1 to 1 mg/m L) and NADPH (1 mM) in the presence of specific probe substrates at 37°C. Probe substrates and incubation times were: phenacetin (30 µM, 5 min), tolbutamide (120 µM, 60 min), mephenytoi n (25 µM, 60 min) and dextromethorphan (5 µM, 5 min) for CYP1A2, CYP2C9, CYP2C19 and CYP2D6, respectivel y. For CYP3A4, midazolam (2.5 µM, 5 min) andtestosterone (50 µM, 5 min) were used as probe substrates. […]
(§11) isoform. All reactions were terminated b y addition of methanol prior to cent rifugation and addition of internal standard to the supernatants. For CYP2C9, CYP2C19, CYP2D6 and CYP3A4 (midazolam) incubations, the supernat ants were combined for the simultaneous anal ysis o f 4-h ydrox ytol butamide, 4- hydrox ymephenytoin, dextrorphan and 1-hydrox ymidazolam b y LC-MS/MS. For the CYP1A2 and CYP3A4 (testosterone) incubations, the supernatants were anal yzed individuall y for acetaminophen and 6ß-h ydrox ytestosterone b y LC -MS/MS. A decrease i n the formation of the metabolites compared to vehicle control was used to calculate an IC50 value.

[6] = molecular target: T2, CYP2C19 (Homo sapiens, UniProt P33261); assay: Cytochrome P450 inhibition; assay type: in vitro ADME; settings: human liver microsomes, tested up to 25 µM
T2 construct: with human liver microsomes; from tissue; host or cells: human liver microsomes
Description: as §7, §9, §10, §11

[7] = molecular target: T3, CYP2C9 (Homo sapiens, UniProt P11712); assay: Cytochrome P450 inhibition; assay type: in vitro ADME; settings: human liver microsomes, tested up to 25 µM
T3 construct: with human liver microsomes; from tissue; host or cells: human liver microsomes
Description: as §7, §9, §10, §11

[8] = molecular target: T4, CYP2D6 (Homo sapiens, UniProt P10635); assay: Cytochrome P450 inhibition; assay type: in vitro ADME; settings: human liver microsomes, tested up to 25 µM
T4 construct: with human liver microsomes; from tissue; host or cells: human liver microsomes
Description: as §7, §9, §10, §11

[9] = molecular target: T5, CYP3A4 (Homo sapiens, UniProt P08684); assay: Cytochrome P450 inhibition; assay type: in vitro ADME; settings: human liver microsomes, tested up to 25 µM
T5 construct: with human liver microsomes; from tissue; host or cells: human liver microsomes
Description: as §7, §9, §10, §11

[10] = molecular target: T6, rat recombinant kappa-opioid (KOP) receptor (Rattus norvegicus, UniProt P34975); assay: kappa-opioid (KOP) receptor binding assay
T6 construct: purchased CEREP, Redmond, WA (ExpresSProfile screen)
From the text: […]. […] […]. […] […].

[11] = Pharmacokinetic study in mouse
Description: An additional group of rats, cannulated in both the jugular and portal veins were dosed by oral gavage (10 mg/kg, in 0.5% methylcellulose in water). Approximately 110 μL of blood was taken from the animals by retro-orbital bleeding (mouse), tail vein (rat i.v.) or both jugular and portal vein sampling (rat p.o.) at pre-specified time intervals. The 2 h samples were split for parallel determination of blood and plasma concentration (ex vivo ratio). Blood samples were collected into K2-EDTA tubes and centrifuged to obtain plasma.

[12] = male, CD-1, mouse, plasma, iv, 2 mg/kg
[13] = male, CD-1, mouse, plasma, po, 10 mg/kg

T6 sequence (P34975 whole entry): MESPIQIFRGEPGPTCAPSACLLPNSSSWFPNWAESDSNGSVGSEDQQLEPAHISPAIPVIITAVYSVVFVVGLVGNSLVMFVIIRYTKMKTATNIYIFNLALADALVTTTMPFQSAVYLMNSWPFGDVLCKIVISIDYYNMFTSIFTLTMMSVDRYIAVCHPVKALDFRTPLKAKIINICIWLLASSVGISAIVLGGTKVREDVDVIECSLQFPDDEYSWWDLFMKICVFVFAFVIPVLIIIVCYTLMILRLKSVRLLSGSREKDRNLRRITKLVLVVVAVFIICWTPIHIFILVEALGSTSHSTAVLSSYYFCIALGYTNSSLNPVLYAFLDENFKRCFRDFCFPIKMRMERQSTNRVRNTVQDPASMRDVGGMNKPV
T5 sequence (P08684 whole entry): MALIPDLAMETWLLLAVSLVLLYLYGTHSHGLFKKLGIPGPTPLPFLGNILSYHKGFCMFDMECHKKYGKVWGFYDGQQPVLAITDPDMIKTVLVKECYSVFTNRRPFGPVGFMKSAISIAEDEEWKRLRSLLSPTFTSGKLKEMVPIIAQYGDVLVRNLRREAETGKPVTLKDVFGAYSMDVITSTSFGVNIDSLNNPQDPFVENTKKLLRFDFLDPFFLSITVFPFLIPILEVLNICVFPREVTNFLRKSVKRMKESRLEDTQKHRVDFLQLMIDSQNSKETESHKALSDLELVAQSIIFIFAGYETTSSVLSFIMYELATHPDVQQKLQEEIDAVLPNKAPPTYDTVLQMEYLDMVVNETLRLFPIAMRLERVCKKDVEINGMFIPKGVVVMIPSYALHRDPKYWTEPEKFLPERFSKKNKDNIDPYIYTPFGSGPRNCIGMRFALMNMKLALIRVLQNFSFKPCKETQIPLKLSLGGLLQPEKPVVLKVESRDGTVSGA
T4 sequence (P10635 whole entry): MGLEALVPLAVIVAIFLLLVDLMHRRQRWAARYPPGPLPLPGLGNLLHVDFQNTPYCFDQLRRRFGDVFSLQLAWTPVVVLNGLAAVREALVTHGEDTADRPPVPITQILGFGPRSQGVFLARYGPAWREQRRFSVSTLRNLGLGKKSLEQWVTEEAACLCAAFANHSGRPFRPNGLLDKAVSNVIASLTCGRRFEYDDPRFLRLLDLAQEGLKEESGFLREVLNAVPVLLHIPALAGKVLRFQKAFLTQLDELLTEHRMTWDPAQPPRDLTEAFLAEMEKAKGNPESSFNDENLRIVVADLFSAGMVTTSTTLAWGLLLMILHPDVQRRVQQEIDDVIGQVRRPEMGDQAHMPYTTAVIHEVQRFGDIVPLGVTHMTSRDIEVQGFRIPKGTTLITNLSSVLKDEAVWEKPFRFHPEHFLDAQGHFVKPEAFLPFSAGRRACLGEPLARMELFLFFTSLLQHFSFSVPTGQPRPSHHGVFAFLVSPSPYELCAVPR
T3 sequence (P11712 whole entry): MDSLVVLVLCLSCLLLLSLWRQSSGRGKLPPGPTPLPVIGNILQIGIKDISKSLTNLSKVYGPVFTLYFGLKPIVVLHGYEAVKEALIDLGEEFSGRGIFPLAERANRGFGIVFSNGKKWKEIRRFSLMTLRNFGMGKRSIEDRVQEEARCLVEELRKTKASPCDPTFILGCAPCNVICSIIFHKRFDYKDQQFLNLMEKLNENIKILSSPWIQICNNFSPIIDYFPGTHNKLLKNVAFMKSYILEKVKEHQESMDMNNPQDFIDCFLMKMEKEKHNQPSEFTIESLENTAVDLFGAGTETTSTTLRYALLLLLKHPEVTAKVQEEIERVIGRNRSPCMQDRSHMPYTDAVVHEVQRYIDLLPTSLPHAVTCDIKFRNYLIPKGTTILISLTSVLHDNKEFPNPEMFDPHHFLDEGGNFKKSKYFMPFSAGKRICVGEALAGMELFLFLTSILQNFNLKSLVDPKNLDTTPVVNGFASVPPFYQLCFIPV
T1 sequence (P05177 whole entry): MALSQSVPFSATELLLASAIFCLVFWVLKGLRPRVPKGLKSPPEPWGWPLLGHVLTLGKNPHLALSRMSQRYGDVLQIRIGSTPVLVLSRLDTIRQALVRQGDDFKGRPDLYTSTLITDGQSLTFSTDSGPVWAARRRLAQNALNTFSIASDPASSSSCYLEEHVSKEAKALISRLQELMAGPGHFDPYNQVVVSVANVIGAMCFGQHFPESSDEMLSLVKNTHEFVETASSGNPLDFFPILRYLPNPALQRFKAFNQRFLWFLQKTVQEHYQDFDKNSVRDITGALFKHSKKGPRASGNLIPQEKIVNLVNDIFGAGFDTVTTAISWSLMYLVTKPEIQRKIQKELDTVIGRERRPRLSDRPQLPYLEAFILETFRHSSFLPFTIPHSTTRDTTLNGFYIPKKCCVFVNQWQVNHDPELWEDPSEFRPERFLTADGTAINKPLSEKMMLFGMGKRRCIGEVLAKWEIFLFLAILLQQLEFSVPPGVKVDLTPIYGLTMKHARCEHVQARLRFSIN
T2 sequence (P33261 whole entry): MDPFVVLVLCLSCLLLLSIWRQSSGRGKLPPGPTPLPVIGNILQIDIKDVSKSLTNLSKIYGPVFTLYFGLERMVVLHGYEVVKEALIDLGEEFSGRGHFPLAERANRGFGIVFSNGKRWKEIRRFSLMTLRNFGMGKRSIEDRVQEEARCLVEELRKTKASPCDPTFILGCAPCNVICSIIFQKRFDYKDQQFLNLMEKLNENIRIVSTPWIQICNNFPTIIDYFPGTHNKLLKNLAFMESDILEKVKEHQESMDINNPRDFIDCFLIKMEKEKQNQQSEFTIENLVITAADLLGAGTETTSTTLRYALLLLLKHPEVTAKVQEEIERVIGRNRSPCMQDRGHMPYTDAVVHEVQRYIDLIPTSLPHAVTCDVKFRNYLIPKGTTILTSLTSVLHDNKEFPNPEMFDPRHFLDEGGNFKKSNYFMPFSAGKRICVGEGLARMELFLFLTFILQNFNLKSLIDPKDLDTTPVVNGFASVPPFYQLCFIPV

Q: What does the source list for `CNC[C@@H](O)COc1ccc(Cl)c(-c2nc(-c3c(C)noc3C)c(C)c(N3CC4(CCN(C(=O)OC)CC4)C3)n2)c1` [EZM2302]?
A: IC50 [1]: 4.95 µM; IC50 [2]: > 36.7 µM; fraction unbound at 16 h, 5 µM [3]: 0.46; fraction unbound at 16 h, 5 µM [4]: 0.74; CYP1A2 inhibition [5]: did not inhibit; CYP2C19 inhibition [6]: did not inhibit; CYP2C9 inhibition [7]: did not inhibit; CYP2D6 inhibition [8]: did not inhibit; CYP3A4 inhibition [9]: did not inhibit; IC50 [10]: 3.3 µM; inhibition at 10 µM ([10]; 10 μM): 69%; CL (plasma clearance) ([11]; CD-1 mouse, IV Bolus 2 mg/kg, 2 mg/kg): 43.2 mL/min/kg; AUC(0-inf) [11, 12]: 772 ng·h/mL; AUC(0-t) [11, 12]: 767 ng·h/mL; Vd [11, 12]: 6.53 L/kg; half-life [11, 12]: 4.22 h; clearance ([11]; male, CD-1, mouse, plasma, iv, 2 mg/kg, CL (plasma clearance), IV Bolus 2 mg/kg): 43 mL/min/kg; AUC(0-inf) [11, 13]: 577 ng·h/mL; AUC(0-t) [11, 13]: 568 ng·h/mL; Cmax [11, 13]: 177 ng/mL; Tmax [11, 13]: 2 h; bioavailability [11, 13]: 15%; half-life [11, 13]: 4.55 h
